Calls of active or inactive are those of the source. No rule for the calls is given here.
Target: Neurotensin receptor type 1 (Homo sapiens) (UniProt P30989)
Assay: agonism at neurotensin receptor 1, calcium rise – cell-based, fluorescence, calcium flux, single concentration, SAR follow-up (AID 602466)
Conditions: NTR1-expressing cells, at 30 µM (top of the series)

Sequence of Neurotensin receptor type 1 (Homo sapiens) (P30989 whole entry, looked up): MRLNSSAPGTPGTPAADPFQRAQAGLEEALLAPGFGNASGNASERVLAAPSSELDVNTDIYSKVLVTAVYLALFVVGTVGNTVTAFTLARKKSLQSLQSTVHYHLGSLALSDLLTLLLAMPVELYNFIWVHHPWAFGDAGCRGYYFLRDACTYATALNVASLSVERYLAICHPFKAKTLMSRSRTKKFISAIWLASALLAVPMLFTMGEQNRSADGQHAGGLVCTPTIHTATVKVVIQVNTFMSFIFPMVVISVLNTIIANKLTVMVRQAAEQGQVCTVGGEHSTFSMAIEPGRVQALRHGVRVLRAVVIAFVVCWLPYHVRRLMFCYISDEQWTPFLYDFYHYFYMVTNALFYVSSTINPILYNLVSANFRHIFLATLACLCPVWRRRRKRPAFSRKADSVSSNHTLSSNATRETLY

SMILES	activation
COc1cccc(OC)c1-c1cc(C(=O)N[C@@H](CC(C)C)C(=O)O)nn1-c1ccnc2cc(Cl)ccc12	48.7%
COc1cc2c3nnc(-c4ccc(C)cc4)c-3cn(Cc3ccc(C)cc3)c2cc1OC	132%
COc1cc2c3nnc(-c4ccccc4)c-3cn(Cc3ccccc3)c2cc1OC	55%
COc1ccc(Cn2cc3c(-c4ccc(F)cc4)nnc-3c3cc(OC)c(OC)cc32)cc1	56.6%
COc1cc2c3nnc(-c4ccc(F)cc4)c-3cn(Cc3ccc(C)cc3)c2cc1OC	115%
COc1ccc2c(c1)c1nnc(-c3ccc(F)cc3)c-1cn2Cc1ccc(F)cc1	39.5% (inactive)
COc1cc2c3nnc(-c4ccc(F)cc4)c-3cn(Cc3ccccc3)c2cc1OC	110%
COc1cccc(OC)c1-c1nc(C(=O)N[C@@H](CC(C)C)C(=O)O)cn1-c1ccnc2cc(Cl)ccc12	102%
COc1cc2nc(-c3ccccc3)nc(N3CCN(c4ccccc4OC)CC3)c2cc1OC	60.6%
COc1ccc(-c2nnc3c4cc(OC)c(OC)cc4n(Cc4ccc(C)cc4)cc2-3)cc1	7.03% (inactive)
COc1cc2c3nnc(-c4ccc(C)c(C)c4)c-3cn(Cc3ccc(C)cc3)c2cc1OC	131%
COc1cccc(OC)c1-c1nc(C(=O)NC2(C(=O)O)C3CC4CC(C3)CC2C4)cn1-c1ccnc2cc(Cl)ccc12 (stereo not given)	12.4% (inactive)
COc1ccc2c(c1)c1nnc(-c3ccc(F)cc3)c-1cn2Cc1ccccc1	10.2% (inactive)
COc1ccc(-c2nc(C(=O)N[C@@H](CC(C)C)C(=O)O)cn2-c2ccnc3cc(Cl)ccc23)c(OC)c1	35.9% (inactive)
COc1cc2c3nnc(-c4ccc(Cl)cc4)c-3cn(Cc3ccc(F)cc3)c2cc1OC	187%
COc1cc2c3nnc(-c4ccc(C)cc4)c-3cn(Cc3ccc(F)cc3)c2cc1OC	90.8%
COc1cc2c3nnc(-c4ccc(Cl)cc4)c-3cn(Cc3ccccc3)c2cc1OC	99.2%
COc1cc2c3nnc(-c4ccc(F)cc4)c-3cn(Cc3ccc(Cl)cc3)c2cc1OC	67.8%

Second part, the compound after the results:

activation	SMILES
13.4% (inactive)	Cc1ccc(Cn2cc3c(-c4ccc(F)cc4)nnc-3c3cc4c(cc32)OCO4)cc1
110%	COc1cccc(OC)c1-c1nc(C(=O)N[C@@H](CC(C)C)C(=O)O)cn1-c1cccc2ccccc12
11.9%	COc1ccccc1-c1cc(C(=O)N[C@@H](CC(C)C)C(=O)O)nn1-c1ccnc2cc(Cl)ccc12
37.7%	Cc1cccc(C)c1-c1nc(C(=O)N[C@@H](CC(C)C)C(=O)O)cn1-c1ccnc2cc(Cl)ccc12
38.2% (inactive)	COc1cc2c3nnc(-c4ccc(C)c(C)c4)c-3cn(Cc3ccc(F)cc3)c2cc1OC
9.46% (inactive)	Cc1ccc(Cn2cc3c(-c4ccc(F)cc4)nnc-3c3ccccc32)cc1
95.3%	COc1cc2c3nnc(-c4ccc(F)cc4)c-3cn(Cc3ccc(F)cc3)c2cc1OC
17.5% (inactive)	COc1cc2nc(C)nc(N3CCN(c4ccccc4OC)CC3)c2cc1OC
2.56% (inactive)	COc1cc2c3nnc(-c4ccc(F)cc4)c-3cn(Cc3ccc(OC(F)(F)F)cc3)c2cc1OC
191%	COc1cc2c3nnc(-c4ccc(F)cc4)c-3cn(Cc3cccc(C)c3)c2cc1OC
9.85% (inactive)	COc1cc2nc(C3CCC3)nc(N3CCN(c4ccccc4C)CC3)c2cc1OC
37.2% (inactive)	COc1cc2c3nnc(-c4ccc(F)cc4)c-3cn(Cc3ccccc3N(C)C)c2cc1OC

Reference: PubChem BioAssay AID602466 (Sanford-Burnham Center for Chemical Genomics, 2012)
